Assay results published in patent US9045461B2, “Phenyl-heteroaryl derivatives and methods of use thereof” (TransTech Pharma, LLC, priority 2010, dated 2015).
pEC50, pIC50: −log10 of the molar value. Where a name gives a salt, the structure may show the parent alone.

Legend:
[1] = molecular target: T1, sRAGE binding to β-amyloid (Homo sapiens, UniProt Q15109); assay: RAGE binding assay (ELISA), β-amyloid as the RAGE ligand; details: compounds tested in hydrochloride salt form, concentration at which 50% signal has been inhibited
T1 construct: extracellular domain can be isolated by proteolysis of RAGE to generate soluble RAGE (sRAGE) comprised of the V and C domains
T1 sequence (Q15109 23-342 limits assumed): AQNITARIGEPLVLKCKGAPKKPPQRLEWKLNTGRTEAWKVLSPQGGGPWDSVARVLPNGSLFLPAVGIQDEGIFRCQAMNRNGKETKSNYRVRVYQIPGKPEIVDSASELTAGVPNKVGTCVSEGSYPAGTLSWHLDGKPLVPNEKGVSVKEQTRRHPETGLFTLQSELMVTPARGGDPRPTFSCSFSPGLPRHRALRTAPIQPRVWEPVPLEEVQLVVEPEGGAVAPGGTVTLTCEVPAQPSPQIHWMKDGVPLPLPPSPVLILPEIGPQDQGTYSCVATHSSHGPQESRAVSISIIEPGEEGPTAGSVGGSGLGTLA
How it was run: (§1)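 Ligand (500 ng/well) coated in carbonate buffer pH 9.8 overnight at 4° C and blocked with 1% BSA; test compound (10-100 μM in water, 4% DMSO co-solvent) incubated with sRAGE (6 nM FAC) 1 h at 37° C. Bound sRAGE detected by anti-sRAGE/biotin-anti-mouse/AP-streptavidin with pNPP, A405. IC50 = 50% signal inhibition.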

sRAGE binding to S100b = molecular target: T2, sRAGE binding to S100b (Homo sapiens, UniProt Q15109); assay: RAGE binding assay (ELISA), S100b as the RAGE ligand; details: compounds tested in hydrochloride salt form, concentration at which 50% signal has been inhibited
T2 construct: extracellular domain can be isolated by proteolysis of RAGE to generate soluble RAGE (sRAGE) comprised of the V and C domains
T2 sequence (Q15109 23-342 limits assumed): as above
How it was run: as §1

[2] = tested on: RAGE signaling in THP-1 cells; assay: Functional assay: TNF-alpha secretion by S100b-stimulated THP-1 cells; assay type: cell-based; details: Homo sapiens; THP-1 cells stimulated with bovine S100b 100 μg/mL; TNF-alpha measured by ELISA 24 hours after stimulation; read-out: EC50 for TNF expression
Excerpt: Previously the literature has cited that THP-1 cells in response to RAGE ligands secrete TNF alpha (Yeh C-H, et al. Diabetes. Vol. 50, June 2001, pp. 1495-1504). The following assay method may be used to identify compounds of Formula (I) or pharmaceutically acceptable salts thereof which are useful as antagonists of RAGE signaling.
The myeloid cell line, THP-1 (ATTC # TIB-202), may be cultured in RPMI-1640 media (ATCC, Cat #30-2001) supplemented with fetal bovine serum to a final concentration of 10% by volume and Penicillin-Streptomycin (Gibco, Cat #0.15140-122). Alternatively, media may be formulated using RPMI 1640 (Bio-Whitaker #12-702F) supplemented with 2 mM L-glutamine (Gibco #12381-018) adjusted to contain 1.5 g/L sodium bicarbonate (Gibco #25080-094), 4.5 g/L glucose, 10 mM HEPES (Cellgro #25-060-L1) and 1.0 mM sodium pyruvate (Gibco #11360-070) and supplemented with 0.05 mM 2-mercaptoethanol, […] fetal bovine serum, 10% per ATCC instructions. During culture, the culture cells are maintained at a density between 5×10^4 and 1×10^6 viable cells/mL. […]
The amount of TNF-alpha secreted by the THP-1 cells was measured 24 hours after the addition of the stimulant proteins to the cell culture using a commercially available ELISA kit (R&D Systems, Minneapolis, Minn. # DY210). […] The plate is read at 450 nm within 30 minutes. […]

Row | SMILES | pIC50 [1] | pIC50 (sRAGE binding to S100b) | pEC50 [2]
1 | CCCCc1nnc(OC2CCN(C)CC2)cc1-c1ccc(OC2CCCCC2)cc1 [Example 14, 3-Butyl-4-(4-cyclohexyloxy-phenyl)-6-(1-methyl-piperidin-4-yloxy)-pyridazine dihydrochloride] | 6.09 | 6.09 | 5.90
2 | CCCCc1nnc(C(=O)N2CCC(CN(C)C)C(F)(F)C2)cc1-c1ccc(OC2CCCCC2)cc1 (centres unmarked) [Example 105, [6-Butyl-5-(4-cyclohexyloxy-phenyl)-pyridazin-3-yl]-(4-dimethylaminomethyl-3,3-difluoro-piperidin-1-yl)-methanone dihydrochloride] | 5.67 | 5.86 | –
3 | CCCCc1nnc(C(=O)N2CCC(O)C(CN(C)C)C2)cc1-c1ccc(OC2CCCCC2)cc1 (centres unmarked) [Example 106, [6-Butyl-5-(4-cyclohexyloxy-phenyl)-pyridazin-3-yl]-(3-dimethylaminomethyl-4-hydroxyoxy-piperidin-1-yl)-methanone dihydrochloride] | 5.76 | 5.66 | –
4 | CCCCc1nnc(C(=O)N(C2CC2)C2CCN(C)CC2)cc1-c1ccc(OC2CCCCC2)cc1 [Example 115, 6-Butyl-5-(4-cyclohexyloxy-phenyl)-pyridazine-3-carboxylic acid cyclopropyl-(1-methyl-piperidin-4-yl)-amide dihydrochloride] | 6.00 | 5.95 | –

The next lines start with the values.

Row | pIC50 [1] | pIC50 (sRAGE binding to S100b) | pEC50 [2] | SMILES
5 | 6.07 | 5.93 | – | CCCCc1nnc(C(=O)NCC2=CCN(C)CC2)cc1-c1ccc(OC2CCCCC2)cc1 [Example 108, 6-Butyl-5-(4-cyclohexyloxy-phenyl)-pyridazine-3-carboxylic acid (1-methyl-1,2,3,6-tetrahydro-pyridin-4-ylmethyl)-amide dihydrochloride]
6 | 5.23 | 5.23 | – | CCCCc1nnc(C(=O)NCC2(F)CCN(C)CC2)cc1-c1ccc(OC2CCCCC2)cc1 [Example 109, 6-Butyl-5-(4-cyclohexyloxy-phenyl)-pyridazine-3-carboxylic acid (4-fluoro-1-methyl-piperidin-4-ylmethyl)-amide dihydrochloride]
7 | 5.53 | 5.67 | – | CCCCc1nnc(C(=O)NC2(CO)CCN(C)C2)cc1-c1ccc(OC2CCCCC2)cc1 (centres unmarked) [Example 111, 6-Butyl-5-(4-cyclohexyloxy-phenyl)-pyridazine-3-carboxylic acid (3-hydroxymethyl-1-methyl-pyrrolidin-3-yl)-amide dihydrochloride]
8 | 6.01 | 5.97 | – | CCCCc1nnc(C(=O)N(C)C2CCN(C)CC2)cc1-c1ccc(OC2CCCCC2)cc1 [Example 114, 6-Butyl-5-(4-cyclohexyloxy-phenyl)-pyridazine-3-carboxylic acid methyl-(1-methyl-piperidin-4-yl)-amide dihydrochloride]
